Measured values: patent US20240398828A1, “HETERO-ATOM CONTAINING COMPOUNDS AND USES THEREOF” (Kumquat Biosciences Inc., priority 2021, published 2024)

Legend:
PTPN2 (i.e., TC-PTP) = target: T1, PTPN2 (i.e., TC-PTP) (Homo sapiens, UniProt P17706); experiment: Phosphatase activity assay (DiFMUP substrate), PTPN2; type: biochemical; settings: compounds binned ≤1 uM or >1 uM
T1 sequence (P17706 1-415): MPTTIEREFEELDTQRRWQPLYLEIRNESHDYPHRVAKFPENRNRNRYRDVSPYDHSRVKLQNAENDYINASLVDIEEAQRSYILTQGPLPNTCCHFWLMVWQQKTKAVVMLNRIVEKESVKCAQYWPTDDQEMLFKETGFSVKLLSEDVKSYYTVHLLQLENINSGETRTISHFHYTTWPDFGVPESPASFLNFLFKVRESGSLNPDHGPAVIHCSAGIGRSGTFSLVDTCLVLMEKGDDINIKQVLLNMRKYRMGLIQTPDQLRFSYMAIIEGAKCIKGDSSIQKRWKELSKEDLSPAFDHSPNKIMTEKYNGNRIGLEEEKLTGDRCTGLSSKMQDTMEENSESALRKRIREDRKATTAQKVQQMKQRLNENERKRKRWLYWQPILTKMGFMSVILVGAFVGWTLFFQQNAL
Method in brief: (§1)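 First, serially diluted inhibitor is mixed about 2 minutes with enzyme in pH 7.5 HEPES/NaCl/EDTA/DTT/Tween-20 buffer. Next, DiFMUP is added at the enzyme's Km, approximately 45 μM for PTPN2. Finally, DiFMU appearance is read continuously at room temperature and rates are fitted for IC50.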

PTPN1 (i.e., PTP1B) = target: T2, PTPN1 (i.e., PTP1B) (Homo sapiens, UniProt P18031); experiment: Phosphatase activity assay (DiFMUP substrate), PTP1B; type: biochemical; settings: compounds binned ≤1 uM or >1 uM
T2 sequence (P18031 1-435): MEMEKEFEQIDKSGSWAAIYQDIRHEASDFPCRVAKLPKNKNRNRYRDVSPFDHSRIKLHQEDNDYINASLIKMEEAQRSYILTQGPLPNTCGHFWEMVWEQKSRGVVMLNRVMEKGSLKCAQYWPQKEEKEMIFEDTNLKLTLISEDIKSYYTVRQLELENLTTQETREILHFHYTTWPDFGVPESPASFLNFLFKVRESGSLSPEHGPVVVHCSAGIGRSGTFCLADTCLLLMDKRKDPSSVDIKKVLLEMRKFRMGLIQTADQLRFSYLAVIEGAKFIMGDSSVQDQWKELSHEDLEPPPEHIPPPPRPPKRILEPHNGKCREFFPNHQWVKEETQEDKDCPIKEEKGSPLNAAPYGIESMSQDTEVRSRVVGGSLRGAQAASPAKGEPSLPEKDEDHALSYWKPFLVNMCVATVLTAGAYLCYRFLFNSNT
Method in brief: as §1

IC50 (PTPN2 (i.e., TC-PTP)) | IC50 (PTPN1 (i.e., PTP1B)) | SMILES
≤ 1 µM | ≤ 1 µM | CN1CC2(C1)CN(c1cc(-c3ccc(O)c(N4CC(=O)NS4(=O)=O)c3F)[nH]n1)C2 [Compound 252, 5-(2-fluoro-6-hydroxy-3-(3-(6-methyl-2,6-diazaspiro[3.3]heptan-2-yl)-1H-pyrazol-5-yl)phenyl)-1,2,5-thiadiazolidin-3-one 1,1-dioxide]
≤ 1 µM | ≤ 1 µM | O=C1CN(c2c(O)ccc(-c3cc(C#CC4CCCCC4)n[nH]3)c2F)S(=O)(=O)N1 [Compound 253, 5-(3-(3-(cyclohexylethynyl)-1H-pyrazol-5-yl)-2-fluoro-6-hydroxyphenyl)-1,2,5-thiadiazolidin-3-one 1,1-dioxide]
≤ 1 µM | ≤ 1 µM | Cc1c(C2CC2)n[nH]c1-c1ccc(O)c(N2CC(=O)NS2(=O)=O)c1F [Compound 254, 5-(3-(3-cyclopropyl-4-methyl-1H-pyrazol-5-yl)-2-fluoro-6-hydroxyphenyl)-1,2,5-thiadiazolidin-3-one 1,1-dioxide]
≤ 1 µM | ≤ 1 µM | O=C1CN(c2c(O)ccc(-c3cc(CCCC(F)(F)F)n[nH]3)c2F)S(=O)(=O)N1 [Compound 255, 5-(2-fluoro-6-hydroxy-3-(3-(4,4,4-trifluorobutyl)-1H-pyrazol-5-yl)phenyl)-1,2,5-thiadiazolidin-3-one 1,1-dioxide]
≤ 1 µM | ≤ 1 µM | O=C1CN(c2c(O)ccc(-c3cc(C4CC4)no3)c2F)S(=O)(=O)N1 [Compound 256, 5-(3-(3-cyclopropylisoxazol-5-yl)-2-fluoro-6-hydroxyphenyl)-1,2,5-thiadiazolidin-3-one 1,1-dioxide]
≤ 1 µM | ≤ 1 µM | O=C1CN(c2c(O)ccc(-c3c[nH]c(CCC4CC4)c3)c2F)S(=O)(=O)N1 [Compound 257, 5-(3-(5-(2-cyclopropylethyl)-1H-pyrrol-3-yl)-2-fluoro-6-hydroxyphenyl)-1,2,5-thiadiazolidin-3-one 1,1-dioxide]
≤ 1 µM | ≤ 1 µM | O=C1CN(c2c(O)ccc(-c3cc4ccccc4[nH]3)c2F)S(=O)(=O)N1 [Compound 258, 5-(2-fluoro-6-hydroxy-3-(1H-indol-2-yl)phenyl)-1,2,5-thiadiazolidin-3-one 1,1-dioxide]
≤ 1 µM | ≤ 1 µM | CN1CCC(n2cc(-c3ccc(O)c(N4CC(=O)NS4(=O)=O)c3F)cn2)CC1 [Compound 259, 5-(2-fluoro-6-hydroxy-3-(1-(1-methylpiperidin-4-yl)-1H-pyrazol-4-yl)phenyl)-1,2,5-thiadiazolidin-3-one 1,1-dioxide]
≤ 1 µM | ≤ 1 µM | O=C1CN(c2c(O)ccc(-c3cnn(C4CC4)c3)c2Cl)S(=O)(=O)N1 [Compound 260, 5-(2-chloro-3-(1-cyclopropyl-1H-pyrazol-4-yl)-6-hydroxyphenyl)-1,2,5-thiadiazolidin-3-one 1,1-dioxide]
≤ 1 µM | ≤ 1 µM | O=C1CN(c2c(O)ccc(-c3ccc(NS(=O)(=O)C4CC4)cn3)c2F)S(=O)(=O)N1 [Compound 261, N-(6-(3-(1,1-dioxido-4-oxo-1,2,5-thiadiazolidin-2-yl)-2-fluoro-4-hydroxyphenyl)pyridin-3-yl)cyclopropanesulfonamide]
≤ 1 µM | ≤ 1 µM | CC(C)CCc1cnc(-c2ccc(O)c(N3CC(=O)NS3(=O)=O)c2F)[nH]1 [Compound 262, 5-(2-fluoro-6-hydroxy-3-(5-isopentyl-1H-imidazol-2-yl)phenyl)-1,2,5-thiadiazolidin-3-one 1,1-dioxide]
≤ 1 µM | ≤ 1 µM | Cc1ncc(-c2ccc(O)c(N3CC(=O)NS3(=O)=O)c2F)[nH]1 [Compound 263, 5-(2-fluoro-6-hydroxy-3-(2-methyl-1H-imidazol-5-yl)phenyl)-1,2,5-thiadiazolidin-3-one 1,1-dioxide]
≤ 1 µM | ≤ 1 µM | O=C1CN(c2c(O)ccc(-c3cnn(C(F)(F)F)c3)c2F)S(=O)(=O)N1 [Compound 264, 5-(2-fluoro-6-hydroxy-3-(1-(trifluoromethyl)-1H-pyrazol-4-yl)phenyl)-1,2,5-thiadiazolidin-3-one 1,1-dioxide]
≤ 1 µM | ≤ 1 µM | O=C1CN(c2c(O)ccc(-c3cn(-c4cc(F)cc(F)c4)cn3)c2F)S(=O)(=O)N1 [Compound 265, 5-(3-(1-(3,5-difluorophenyl)-1H-imidazol-4-yl)-2-fluoro-6-hydroxyphenyl)-1,2,5-thiadiazolidin-3-one 1,1-dioxide]
≤ 1 µM | ≤ 1 µM | O=C1CN(c2c(O)ccc(-c3cc(C4CCCC4)n[nH]3)c2F)S(=O)(=O)N1 [Compound 266, 5-(3-(3-cyclopentyl-1H-pyrazol-5-yl)-2-fluoro-6-hydroxyphenyl)-1,2,5-thiadiazolidin-3-one 1,1-dioxide]
≤ 1 µM | ≤ 1 µM | O=C1CN(c2c(O)ccc(C3=CCN(CC4CCCCC4)C3)c2F)S(=O)(=O)N1 [Compound 267, 5-(3-(1-(cyclohexylmethyl)-2,5-dihydro-1H-pyrrol-3-yl)-2-fluoro-6-hydroxyphenyl)-1,2,5-thiadiazolidin-3-one 1,1-dioxide]
≤ 1 µM | ≤ 1 µM | O=C1CN(c2c(O)ccc(-c3cn(C4CCC(F)(F)CC4)cn3)c2F)S(=O)(=O)N1 [Compound 268, 5-(3-(1-(4,4-difluorocyclohexyl)-1H-imidazol-4-yl)-2-fluoro-6-hydroxyphenyl)-1,2,5-thiadiazolidin-3-one 1,1-dioxide]
≤ 1 µM | ≤ 1 µM | CC(C)CNC1(c2cc(-c3ccc(O)c(N4CC(=O)NS4(=O)=O)c3F)nn2C)CC1 [Compound 269, 5-(2-fluoro-6-hydroxy-3-(5-(1-(isobutylamino)cyclopropyl)-1-methyl-1H-pyrazol-3-yl)phenyl)-1,2,5-thiadiazolidin-3-one 1,1-dioxide]
> 1 µM | > 1 µM | O=C1CN(c2c(O)ccc(-n3cc(C4CC4)cn3)c2F)S(=O)(=O)N1 [Compound 270, 5-(3-(4-cyclopropyl-1H-pyrazol-1-yl)-2-fluoro-6-hydroxyphenyl)-1,2,5-thiadiazolidin-3-one 1,1-dioxide]
≤ 1 µM | ≤ 1 µM | CN1CC2(CCC(n3cc(-c4ccc(O)c(N5CC(=O)NS5(=O)=O)c4F)cn3)CC2)C1 [Compound 271, 5-(2-fluoro-6-hydroxy-3-(1-(2-methyl-2-azaspiro[3.5]nonan-7-yl)-1H-pyrazol-4-yl)phenyl)-1,2,5-thiadiazolidin-3-one 1,1-dioxide]
≤ 1 µM | ≤ 1 µM | O=C1CN(c2c(O)ccc(-c3ccn(CC4CCCCC4)c3)c2F)S(=O)(=O)N1 [Compound 272, 5-(3-(1-(cyclohexylmethyl)-1H-pyrrol-3-yl)-2-fluoro-6-hydroxyphenyl)-1,2,5-thiadiazolidin-3-one 1,1-dioxide]
≤ 1 µM | ≤ 1 µM | O=C1CN(c2c(O)ccc(-c3cnn(C(F)F)c3)c2F)S(=O)(=O)N1 [Compound 273, 5-(3-(1-(difluoromethyl)-1H-pyrazol-4-yl)-2-fluoro-6-hydroxyphenyl)-1,2,5-thiadiazolidin-3-one 1,1-dioxide]
≤ 1 µM | ≤ 1 µM | COCC#Cc1cc(-c2ccc(O)c(N3CC(=O)NS3(=O)=O)c2F)[nH]n1 [Compound 274, 5-(2-fluoro-6-hydroxy-3-(3-(3-methoxyprop-1-yn-1-yl)-1H-pyrazol-5-yl)phenyl)-1,2,5-thiadiazolidin-3-one 1,1-dioxide]
≤ 1 µM | ≤ 1 µM | O=C1CN(c2c(O)ccc(-c3cnn(C4CN(C5CC5)C4)c3)c2F)S(=O)(=O)N1 [Compound 275, 5-(3-(1-(1-cyclopropylazetidin-3-yl)-1H-pyrazol-4-yl)-2-fluoro-6-hydroxyphenyl)-1,2,5-thiadiazolidin-3-one 1,1-dioxide]
> 1 µM | ≤ 1 µM | CCCN1CCCC(c2ccc(O)c(N3CC(=O)NS3(=O)=O)c2F)C1 (stereo not shown) [Compound 276, 5-(2-fluoro-6-hydroxy-3-(1-propylpiperidin-3-yl)phenyl)-1,2,5-thiadiazolidin-3-one 1,1-dioxide]
≤ 1 µM | ≤ 1 µM | O=C1C=C(c2c(O)ccc(-c3cn(CC4CCCCC4)cn3)c2F)S(=O)(=O)N1 [Compound 277, 5-(3-(1-(cyclohexylmethyl)-1H-imidazol-4-yl)-2-fluoro-6-hydroxyphenyl)isothiazol-3(2H)-one 1,1-dioxide]
